According to patent publication US20240041898A9, “NEUROSTEROIDS AND ENANTIOMERS THEREOF FOR THE PREVENTION AND TREATMENT OF NEURODEGENERATIVE CONDITIONS” (priority 2019, published 2024):
“And” between values parts separate entries of the source, which are not always exact repeats. Identical values can stand only once.

Assays:
p62 = experiment: Rat in vivo OHT model, Western blot of p62; conditions: in vivo OHT eyes, 3 weeks after microbead injection; relative units, control = 1.00; single values
Experimental: (§1) Example 7. Rat in vivo OHT model induced by intracameral injection of microbeads—For induction of ocular hypertension (OHT) in vivo, sterile 6 μm polystyrene microbeads were injected into the anterior chamber of the left eye of each animal using a single-step, sclero-corneal tunnel approach with a 35G nanoneedle (FIG. 4A). […] After stabilization of elevated IOP, animals were randomly divided into 3 groups (non-treated OHT, AlloP injection, and ent-AlloP injection). AlloP and ent-AlloP were administered as a one-time intravitreal injection one week following bead injection. Non-treated OHT animals received sterile vehicle intravitreally. As a further control, vehicle was intravitreally injected 7 days after intracameral administration of 10 μl of PBS. Three weeks after bead injections, IOP was 26.7±3.7 mmHg in non-treated OHT eyes compared to 9.9±0.9 mmHg in control eyes. […]

[1] = system: retinal ganglion cells (RGCs); experiment: Rat in vivo OHT model, NeuN-positive RGC survival in whole mount retina; conditions: OHT eyes, intravitreal, three weeks after microbead injection; single values
Experimental: as §1

[2] = system: nerve fiber layer (NFL) of retina; experiment: Ex vivo pressure-loaded retinas, electron microscopy of autophagosomes (AP) and degenerative autophagic vacuoles (DAV); assay type: cell-based, rat; conditions: 75 mmHg, 1 μM; for Autophagosomes (AP) in the NFL, Total / Degenerative autophagic vacuoles (DAV) in the NFL, Total: Total of 10 areas of 25 μm2; for Autophagosomes (AP)/25 μm2 in the NFL, individual areas 1-10 / Degenerative autophagic vacuoles (DAV)/25 μm2 in the NFL, individual areas 1-10: single values
Experimental: Rat ex vivo Eyecup Preparation—Rat ex vivo eyecups were prepared from 28-32 day old male Sprague-Dawley rats (Charles River Laboratories International Inc., Wilmington, MA). The anterior half of the enucleated eyes was carefully removed to make eyecup preparations. Eyecups were placed at the bottom of a 100 ml glass beaker filled with aCSF (artificial cerebrospinal fluid) containing (in mM): 124 NaCl, 5 KCl, 2 MgSO4, 2 CaCl2, 1.25 NaH2PO4, 22 NaHCO3, and 10 glucose, and incubated at 30° C. for 24 hours using a closed pressure-loading system (FIG. 1C). pH was maintained at 7.35 to 7.40. In the closed-pressure system, a glass beaker with the eyecup was placed at the bottom of an acrylic pressure chamber (2,000 ml volume). A 95% O2-5% CO2 gas mixture was delivered through disposable plastic tubing with an infusion valve and a control dial on the lid of the pressure chamber and an air filter (Cat #SLGP033RS, Merck Millipore, Billerica, MA). The plastic tubing delivering the gas terminated 1 cm above the bottom of the beaker.
Acutely prepared eyecups were incubated in gassed aCSF for at least 1 h at 30° C. before pressure loading. In some experiments, AlloP (1 μM), ent-AlloP (1 μM), and 3-MA (10 mM) were dissolved in aCSF at the time of experiment and administered by bath perfusion. Eyecup preparations were treated with these drugs for 1 h at 30° C. before pressure loading. For pressure loading, the 95% O2-5% CO2 gas mixture was infused until the pressure reading given by a manometer reached the appropriate level. The pressure was then locked by adjusting the control dial of the effusion valve, and monitored continuously for 24 h at 30° C.
Electron Microscopy—Retinal specimens were trimmed to a smaller size, and ultrathin sections (75 nm) were cut with a diamond knife and suspended over formvar-coated slot grids (1×2 mm opening). The sections were stained with uranyl acetate and lead citrate and viewed in a transmission electron microscope (H-7650, Hitachi High-Technologies Corp., Tokyo, Japan). Numbers of AP and DAV inside NFLs and axons were determined as the sum in 10 different areas of 25 μm^2 each from each sample. The analysis was performed in three eyes per experimental condition.

Compound | p62 expression (FIG. 6D), individual experiments 1-4 (p62) | RGC Survival (FIG. 4N), number of NeuN-positive cells, individual 1-5 [1] | RGC axon swelling, electron microscopy [2] | Autophagosomes (AP) in the NFL, Total [2] | Degenerative autophagic vacuoles (DAV) in the NFL, Total [2] | Autophagosomes (AP)/25 μm2 in the NFL, individual areas 1-10 [2] | Degenerative autophagic vacuoles (DAV)/25 μm2 in the NFL, individual areas 1-10 [2]
CC(=O)[C@H]1CC[C@H]2[C@@H]3CC[C@H]4C[C@H](O)CC[C@]4(C)[C@H]3CC[C@]12C [AlloP, allopregnanolone] | 1.73 and 1.82 and 2.90 and 2.53 | 2200 per square millimeter and 2240 per square millimeter and 1940 per square millimeter and 1860 per square millimeter and 1800 per square millimeter | protected RGC axons from high pressure | 16 | 8 | 0 /25 μm2 (2×) and 2 /25 μm2 (6×) and 3 /25 μm2 and 1 /25 μm2 | 0 /25 μm2 (4×) and 1 /25 μm2 (5×) and 3 /25 μm2
CC(=O)[C@@H]1CC[C@@H]2[C@H]3CC[C@@H]4C[C@@H](O)CC[C@@]4(C)[C@@H]3CC[C@]21C [ent-AlloP, ent-allopregnanolone] | 0.92 and 0.91 and 1.00 and 1.61 | 2060 per square millimeter and 2260 per square millimeter and 2500 per square millimeter and 2200 per square millimeter and 2460 per square millimeter | protected RGC axons from high pressure | 1 | 22 | 0 /25 μm2 (9×) and 1 /25 μm2 | 1 /25 μm2 (3×) and 2 /25 μm2 (4×) and 4 /25 μm2 (2×) and 3 /25 μm2
